Here are results for six compounds from paper PMC7747014 (Journal of medicinal chemistry, 2015).

Structures are written as SMILES. “Also recorded” adds a separate entry of the source. Where two headings read alike, the source gives them in different places. Where only a bound is given, the exact number is not on record here.

Data set [1] addresses T1, Human recombinant Top1 (Homo sapiens, UniProt P11387).
T1 sequence (P11387 1-765): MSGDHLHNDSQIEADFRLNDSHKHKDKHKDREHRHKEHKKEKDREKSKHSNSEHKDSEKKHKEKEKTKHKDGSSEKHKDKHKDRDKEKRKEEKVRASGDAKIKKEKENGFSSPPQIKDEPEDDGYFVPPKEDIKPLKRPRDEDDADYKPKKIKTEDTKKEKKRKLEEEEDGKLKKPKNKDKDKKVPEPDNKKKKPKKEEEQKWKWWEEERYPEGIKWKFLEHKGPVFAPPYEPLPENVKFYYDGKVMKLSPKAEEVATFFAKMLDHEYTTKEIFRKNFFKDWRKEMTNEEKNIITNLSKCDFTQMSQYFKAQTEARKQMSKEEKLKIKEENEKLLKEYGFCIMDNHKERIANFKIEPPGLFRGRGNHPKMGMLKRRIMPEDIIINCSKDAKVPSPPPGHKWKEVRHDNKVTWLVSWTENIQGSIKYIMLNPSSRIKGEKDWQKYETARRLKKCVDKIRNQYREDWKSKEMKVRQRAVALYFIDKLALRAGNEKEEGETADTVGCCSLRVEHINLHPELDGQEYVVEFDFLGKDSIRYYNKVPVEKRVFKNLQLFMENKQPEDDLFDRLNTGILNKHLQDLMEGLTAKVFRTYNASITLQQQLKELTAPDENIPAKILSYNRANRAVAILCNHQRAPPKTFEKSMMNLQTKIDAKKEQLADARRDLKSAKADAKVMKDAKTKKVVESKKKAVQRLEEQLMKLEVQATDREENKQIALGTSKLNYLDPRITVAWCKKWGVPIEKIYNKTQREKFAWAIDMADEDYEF
In words: Top1-mediated DNA cleavage assay. The data set is classed as biochemical. Conditions: for trapping of Top1 cleavage complexes at low concentration: 5 nM, dose-dependent gel (Figure 8).

Data set [2] has as its target T2, drug−Top1−DNA cleavage complexes (Homo sapiens, UniProt P11387).
T2 sequence (P11387 1-765): T1 sequence (P11387 1-765)
Briefly: Kinetics of reversal assay of Top1-mediated DNA cleavage complexes. The data set is classed as biochemical. The conditions noted are these: for reversal of ternary cleavage complexes: common cleavage sites 70, 92, 97 and 119, forward reaction terminated with 0.35 M NaCl.

The target of data set [3] is T3, recombinant TDP1 (Homo sapiens, UniProt Q9NUW8). Briefly: Gel-based assay measuring the inhibition of recombinant TDP1. The conditions noted are these: read-out: TDP1 inhibition; semiquantitative IC50 scale. Format: biochemical.
The test system of a further data set is melanoma UACC-62. Conditions: read-out: cytotoxicity (GI50 in μM) melanoma UACC-62; cited from earlier work.
The next data set has as its system renal SN12C. The conditions noted are these: read-out: cytotoxicity (GI50 in μM) renal SN12C; cited from earlier work.
Data set [4] addresses T1, Human recombinant Top1. Conditions: graded relative to 1 μM camptothecin; cited from earlier work.
A further data set has as its system colon HCT-116. The conditions noted are these: read-out: cytotoxicity (GI50 in μM) colon HCT-116; cited from earlier work.
Another data set relates to CNS SF-539. Conditions: read-out: cytotoxicity (GI50 in μM) CNS SF-539; cited from earlier work.
For a further data set, the system named is lung HOP-62. Conditions: read-out: cytotoxicity (GI50 in μM) lung HOP-62; cited from earlier work.
Another data set has as its system prostate DU-145. The conditions noted are these: read-out: cytotoxicity (GI50 in μM) prostate DU-145; cited from earlier work.
The subject of the next data set is breast MCF7. The conditions noted are these: read-out: cytotoxicity (GI50 in μM) breast MCF7; cited from earlier work.
The subject of data set [5] is 60 common human cancer cell lines (NCI-60). The conditions noted are these: cited from earlier work.
The next data set deals with ovarian OVACAR-3. Conditions: read-out: cytotoxicity (GI50 in μM) ovarian OVACAR-3; cited from earlier work.
For data set [6], the target named is T3, recombinant TDP1. The conditions noted are these: read-out: TDP1 inhibition; semiquantitative IC50 scale; cited from earlier work.
Setting [7] is: read-out: MGM values, range over the named compounds.

T3 sequence (Q9NUW8 whole entry): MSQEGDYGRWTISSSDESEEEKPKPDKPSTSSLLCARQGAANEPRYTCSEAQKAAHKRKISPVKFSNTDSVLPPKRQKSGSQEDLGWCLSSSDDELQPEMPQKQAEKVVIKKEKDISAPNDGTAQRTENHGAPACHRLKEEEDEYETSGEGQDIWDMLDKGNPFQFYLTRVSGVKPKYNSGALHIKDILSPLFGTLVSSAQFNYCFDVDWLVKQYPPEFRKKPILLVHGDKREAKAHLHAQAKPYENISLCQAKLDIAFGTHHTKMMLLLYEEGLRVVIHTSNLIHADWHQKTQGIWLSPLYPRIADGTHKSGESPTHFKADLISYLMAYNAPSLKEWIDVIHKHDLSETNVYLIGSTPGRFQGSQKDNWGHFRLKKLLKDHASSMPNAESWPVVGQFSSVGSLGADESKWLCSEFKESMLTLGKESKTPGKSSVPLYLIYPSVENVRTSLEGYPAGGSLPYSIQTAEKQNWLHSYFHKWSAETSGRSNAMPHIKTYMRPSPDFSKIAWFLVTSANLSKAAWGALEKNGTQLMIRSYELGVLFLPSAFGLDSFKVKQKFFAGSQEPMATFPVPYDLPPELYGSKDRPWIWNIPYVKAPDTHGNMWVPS

`O=C1c2cc(O)ccc2-c2c1c1ccc([N+](=O)[O-])cc1c(=O)n2CCCBr` [Compound 68, 6-(3-Bromopropyl)-9-hydroxy-3-nitro-5H-indeno[1,2-c]-isoquinoline-5,11(6H)-dione]: the “trapping of Top1 cleavage complexes at low concentration” value on Human recombinant Top1 [1] is “trapped Top1 cleavage complexes at a concentration as low as 5 nM”. In addition, the Top1 cleavage result on Human recombinant Top1 [1] (graded relative to 1 μM camptothecin) is on record as “+++++”. Also, the “reversal of ternary cleavage complexes” value in data set [2] was “quite persistent but did reverse over time; also recorded: reversed slower than that of camptothecin”. Also, the “DNA alkylation / irreversible ternary cleavage complex” value in [2] (from decrease of cleavage bands over time) is on record as “did not alkylate or form an irreversible ternary cleavage complex; also recorded: no evidence of DNA alkylation”. The IC50 at recombinant TDP1 [3] was in the range of 37000 to 111000 nM.
With `COc1ccc2c(c1)C(=O)c1c-2n(CCCN)c(=O)c2cc([N+](=O)[O-])ccc12` [Compound 5], the GI50 in the data set on melanoma UACC-62, with renal SN12C, in the data set on colon HCT-116, with CNS SF-539 and in the data set with lung HOP-62 was below 0.01 µM in each case. Moreover, the Top1 cleavage entry at Human recombinant Top1 [4] was “+++++”.
Take `COc1cc2c(cc1O)C(=O)c1c-2n(CCCn2ccnc2)c(=O)c2cc(OC)c(OC)cc12` [Compound 11]: the GI50 with prostate DU-145 is below 0.01 µM; with melanoma UACC-62 it was below 0.01 µM; in the data set on renal SN12C it was below 0.01 µM; with breast MCF7 it was below 0.01 µM; in data set [5] (setting [7]) it was 55 to 87 nM; with colon HCT-116 it was below 0.01 µM. The figures for the GI50 in the data set on ovarian OVACAR-3, in the data set on CNS SF-539 and in the data set with lung HOP-62 were 0.02 µM, below 0.01 µM and below 0.01 µM, respectively.
Take `CC[C@@]1(O)C(=O)OCc2c1cc1n(c2=O)Cc2cc3ccccc3nc2-1` [Compound 1, camptothecin]: the GI50 in the data set on prostate DU-145, in the data set with melanoma UACC-62, in the data set with breast MCF7, in the data set on CNS SF-539 and with lung HOP-62 was below 0.01 µM in each case. For the same compound, the Top1 cleavage result on Human recombinant Top1 [4] is reported as “++++”. In addition, the “trapping of Top1 cleavage complexes at low concentration” value on Human recombinant Top1 [1] is listed as “lesser activity at that concentration”. For the same compound, in data set [2], the “reversal of ternary cleavage complexes” value was “reversed much faster”.
`COc1cc2c(cc1O)C(=O)c1c-2n(CCCN2CCOCC2)c(=O)c2cc(OC)c(OC)cc12` [Compound 10]: the GI50 with prostate DU-145 was 0.02 µM; in the data set with melanoma UACC-62 it was 0.02 µM; with renal SN12C, 0.02 µM; in the data set on breast MCF7, 0.02 µM; in data set [5] (setting [7]) it was 55 to 87 nM; in the data set with colon HCT-116 it was 0.03 µM. In addition, the GI50 in the data set on ovarian OVACAR-3 is 0.03 µM; with CNS SF-539 it was 0.02 µM; in the data set on lung HOP-62, 0.02 µM. For the same compound, the Top1 cleavage result at Human recombinant Top1 [4] is listed as “+++++”.
In the case of `COc1cc2c(cc1O)-c1c(c3cc(OC)c(OC)cc3c(=O)n1CCCN1CCOCC1)C2=O` [Compound 8], the GI50 with prostate DU-145 was 0.2 µM; in the data set with melanoma UACC-62, 0.07 µM; in the data set with renal SN12C, 0.19 µM; with breast MCF7, 0.03 µM; in data set [5] (read-out: MGM, average GI50 across 60 cell lines) it was 3100 ± 300 nM; in the data set with colon HCT-116, 2.3 µM. For the same compound, the values for the GI50 with ovarian OVACAR-3, in the data set on CNS SF-539 and in the data set on lung HOP-62 were 8.3 µM, 0.28 µM and 0.18 µM, respectively. Besides, on recombinant TDP1 [6], the IC50 was 37000 to 111000 nM.
